# Patent publication US9687479B2, “Multisubstituted aromatic compounds as serine protease inhibitors” (VERSEON CORPORATION, priority 2013, dated 2017)
# Where two headings read alike, the source gives them in different places.
# Legend:
# [1] = target: Recombinant human tissue kallikrein (KLK1) (Homo sapiens (Human), UniProt P06870); experiment: KLK1 kallikrein activity inhibition assay (Pro-Phe-Arg-AMC substrate); assay type: biochemical
# Experimental: The KLK1 kallikrein activity reported herein (e.g., Tables B and C) was obtained as follows. Recombinant human tissue kallikrein (KLK1) was obtained from R&D Systems. […] KLK1 enzyme is activated by incubating 0.5 mg/ml KLK1 combined with 0.1 μg/ml thermolysin in a buffer of 0.05 M Tres (pH 7.5), 0.15 M NaCl, and 0.01 M CaCl2 for one hour at 37° C. The thermolysin is then deactivated by the addition of equal parts 20 mM 1, 10 phenanthroline solution in water. The activated KLK1 solution is then added to CHES buffer (0.05 M CHES, 0.15 M NaCl, 0.01 M CaCl2, pH 10) for a final concentration of 5 nM along with the test article and incubated for 10 minutes. […] Substrate activation is read 10 minutes after substrate addition using a Synergy H1 multifunction plate reader (Biotek) programmed with a 360 nm excitation wavelength and a 480 nm emission wavelength. Inhibitor response was established by adding test compound as ten point, three-fold serial dilutions, as known in the art. The IC50 was calculated by plotting the percent (%) inhibition against compound concentration and fitting the data to a constrained four parameter sigmoidal curve, as known in the art.
# Human KLKB1 = Human KLKB1 (Homo sapiens (Human), UniProt P03952); experiment: KLKB1 kallikrein activity inhibition assay (chromogenic substrate S-2302); assay type: biochemical
# Procedure, shortened: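 Enzyme at a final 3 nM was assayed in 0.05 M Tris pH 7.4, 0.01 M NaCl and 0.2% PEG-8000 at room temperature, with compounds as ten-point threefold dilutions.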
# Human thrombin = Human thrombin (Homo sapiens (Human), UniProt P00734); experiment: Thrombin protease activity inhibition assay (chromogenic substrate S-2238); assay type: biochemical; conditions: 3 nM thrombin, 125 μM S-2238, 10 min pre-incubation, RT
# Procedure, shortened: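 Thrombin at 3 nM final in 0.05 M Tris pH 7.4, 0.015 M NaCl, 0.01% PEG-8000, at room temperature; compounds as ten-point three-fold dilutions.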
# [2] = Pharmacokinetics in mice (i.v. and p.o.); assay type: in vivo, male CD-1 mice; conditions: plasma
# Experimental: Each compound is administered intravenously (i.v.) as a single dose via tail vein or orally (p.o.) as a single dose via gastric gavage to male CD-1 mice of nominal weights between 20 g and 26 g. Nominal doses are 1 mg/kg and 5 mg/kg for i.v. and p.o., respectively. In some examples (dose type A), both p.o. and i.v. doses are prepared by dissolving the test compound in 5% dimethyl acetamide and diluted in tetraethylene glycol for a final concentration of 0.25 mg/mL. In other examples (dose type B), i.v. doses are prepared by dissolving test compounds in 20% dimethyl acetamide, 40% polyethylene glycol 300 and 40% phosphate buffered saline, and p.o. doses are prepared by dissolving test compounds in carboxymethyl cellulose suspension (1% by weight) in water and 2.5% dimethyl acetamide.
# Animals are housed in standard holding cages with food and water available ad libitum except for animals used for p.o. dosing which are fasted overnight prior to dosing. Samples are taken in triplicate via cardiac puncture at times prior to dosing and at 0.083 (i.v. only), 0.25, 0.5, 1, 2, 4, 8, and 24 hours after administration. Plasma is obtained by centrifuge and stored frozen until analyzed by LC-MS/MS using a Shimadzu VP System HPLC coupled to a Applied Biosystems MDS SCIEX API 3000 triple quadrapole MS. Assay results are calibrated using reference samples prepared in a range between 1.5 and 5000 ng/mL.
# Pharmacokinetic parameters are calculated from mean concentration values using a non-compartmental analysis as described in the following and as apparent to those of ordinary skill in the art. Half-lives (t1/2) and elimination rate constants (λ) are determined by log linear regression using equal weighting on the last three finite sample time points. Concentration at time zero (C0) for the i.v. data is established by the extrapolation of log linear regression using equal weighting on the first three sample time points. Area under the curve (AUC) values are calculated using linear trapezoidal integration. Systemic clearance (CL) is calculated as the ratio of dosage and AUC. […] Percent oral bioavailability (% F) is determined from the ratio of i.v. and p.o. AUC values weighted by dosage.
# Chain of Recombinant human tissue kallikrein (KLK1) (P06870 25-262): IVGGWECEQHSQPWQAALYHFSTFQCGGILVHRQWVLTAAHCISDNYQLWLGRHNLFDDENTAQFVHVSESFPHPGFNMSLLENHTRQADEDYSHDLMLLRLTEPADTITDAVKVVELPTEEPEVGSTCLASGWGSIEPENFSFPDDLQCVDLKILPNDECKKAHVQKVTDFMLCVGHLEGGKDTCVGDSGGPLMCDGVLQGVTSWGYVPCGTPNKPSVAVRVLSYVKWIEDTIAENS
# Chain of Human KLKB1 (P03952 391-638 limits assumed): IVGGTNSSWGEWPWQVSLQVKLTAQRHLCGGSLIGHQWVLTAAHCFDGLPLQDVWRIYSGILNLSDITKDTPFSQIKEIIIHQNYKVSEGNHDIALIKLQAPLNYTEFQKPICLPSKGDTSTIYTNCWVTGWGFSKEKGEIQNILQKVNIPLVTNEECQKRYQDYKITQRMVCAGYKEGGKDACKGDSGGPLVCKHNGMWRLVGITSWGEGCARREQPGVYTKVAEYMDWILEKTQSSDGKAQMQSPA
# Chain of Human KLKB1 (P03952 20-390 partner limits assumed): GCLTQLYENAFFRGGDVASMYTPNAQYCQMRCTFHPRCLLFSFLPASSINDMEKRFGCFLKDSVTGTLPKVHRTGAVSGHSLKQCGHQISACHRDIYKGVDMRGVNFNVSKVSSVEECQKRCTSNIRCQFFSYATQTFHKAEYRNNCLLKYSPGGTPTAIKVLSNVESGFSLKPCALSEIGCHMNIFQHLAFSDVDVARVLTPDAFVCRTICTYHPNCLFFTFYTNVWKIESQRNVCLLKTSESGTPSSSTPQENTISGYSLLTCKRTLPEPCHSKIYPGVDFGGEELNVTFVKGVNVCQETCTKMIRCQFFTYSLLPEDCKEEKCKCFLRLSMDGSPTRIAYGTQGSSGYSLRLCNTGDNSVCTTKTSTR
Compound,IC50 ([1]; Table C) [µM],IC50 (Human KLKB1; Table C) [µM],IC50 ([1]; Table B) [µM],IC50 (Human KLKB1; Table B) [µM],IC50 (Human thrombin) [µM],further results
O=C(c1ccccc1)n1nc(-c2ccccn2)nc1NCc1ccccc1 [Cmpd 362],10 to 100,0.1 to 1,,,,
COc1ccccc1C(=O)n1nc(-c2ncccn2)nc1NCc1ccccc1 [Cmpd 18],10 to 100,0.1 to 1,,,,
Nc1ccccc1C(=O)n1nc(-c2ccco2)cc1NCc1ccc(Cl)s1 [Cmpd 277],,,10 to 100,1 to 10,,
COc1ccccc1C(=O)n1nc(C2CCCCC2O)cc1NCc1ccc(Cl)s1 (stereo not drawn) [Cmpd 282],,,> 100,1 to 10,,
Cc1ccccc1C(=O)n1nc(-c2ccccn2)nc1NCc1ccc(Cl)s1 [Cmpd 391],10 to 100,0.1 to 1,,,,
"O=C(c1cccc2c1OCCO2)n1nc(-c2cccn(Cc3ccccn3)c2=O)cc1NCc1ccc(Cl)s1 [Cmpd 113, 3-(5-[(5-chlorothiophen-2-yl)methyl]amino-1-[(2,3-dihydro-1,4-benzodioxin-5-yl)carbonyl]-1H-pyrazol-3-yl)-1-(pyridin-2-ylmethyl)-1,2-dihydropyridin-2-one]",,,10 to 100,0.1 to 1,< 0.1,
COc1ccc(CNc2nc(-c3ccccn3)nn2C(=O)c2ccccc2)cc1 [Cmpd 360],1 to 10,1 to 10,,,,
COc1ccccc1C(=O)n1nc(C2CCNCC2)nc1NCc1ccc(Cl)s1 [Cmpd 387],10 to 100,< 0.1,,,,
"O=C(O)Cn1cccc(-c2cc(NCc3ccc(Cl)s3)[nH]n2)c1=O [Cmpd 59, 2-[3-(5-[(5-chlorothiophen-2-yl)methyl]amino-1H-pyrazol-3-yl)-2-oxo-1,2-dihydropyridin-1-yl]acetic acid]",,,> 100,1 to 10,10 to 100,
"COCCn1cccc(-c2cc(NCc3ccc(Cl)s3)n(C(=O)C3(C)CCOCC3)n2)c1=O [Cmpd 149, 3-(5-[(5-chlorothiophen-2-yl)methyl]amino-1-[(4-methyloxan-4-yl)carbonyl]-1H-pyrazol-3-yl)-1-(2-methoxyethyl)-1,2-dihydropyridin-2-one]",,,> 100,1 to 10,> 100,
"O=C(c1ccccc1Cl)n1nc(-c2cccn(Cc3cccnc3)c2=O)cc1NCc1ccc(Cl)s1 [Cmpd 247, 3-1-[(2-chlorophenyl)carbonyl]-5-[(5-chlorothiophen-2-yl)methyl]amino-1H-pyrazol-3-yl-1-(pyridin-3-ylmethyl)-1,2-dihydropyridin-2-one]",,,> 100,< 0.1,< 0.1,
"COc1ccc(C(=O)n2nc(-c3cccn(Cc4cccnc4)c3=O)cc2NCc2ccc(Cl)s2)c(OC)c1 [Cmpd 126, 3-(5-[(5-chlorothiophen-2-yl)methyl]amino-1-[(2,4-dimethoxyphenyl)carbonyl]-1H-pyrazol-3-yl)-1-(pyridin-3-ylmethyl)-1,2-dihydropyridin-2-one]",,,> 100,1 to 10,< 0.1,
O=C(c1ccsc1)n1nc(-c2ccccn2)cc1NCc1ccc(Cl)s1 [Cmpd 293],,,> 100,0.1 to 1,,
"COc1ccccc1C(=O)n1nc(-c2cccnc2)nc1SC [Cmpd 366, 3-1-[(2-methoxyphenyl)carbonyl]-5-(methylsulfanyl)-1H-1,2,4-triazol-3-ylpyridine]",1 to 10,1 to 10,,,,
O=C(c1ccsc1)n1nc(-c2ccncc2)nc1NCc1ccccc1 [Cmpd 407],> 100,0.1 to 1,,,,
COc1ccccc1C(=O)n1nc(-c2ccccn2)nc1NCc1nccs1 [Cmpd 332],0.1 to 1,10 to 100,,,,
Nc1ccccc1C(=O)n1nc(-c2ncccc2F)cc1NCc1ccc(Cl)s1 [Cmpd 276],,,10 to 100,1 to 10,,
O=C(c1ccoc1)n1nc(C2CCOCC2)c(F)c1NCc1ccc(Cl)s1 [Cmpd 294],,,> 100,1 to 10,,
O=C(c1ccsc1)n1nc(-c2cccnn2)cc1NCc1ccc(Cl)s1 [Cmpd 292],,,> 100,0.1 to 1,,
COc1ccccc1C(=O)n1nc(-c2ccc(N(C)C)cc2)nc1NCc1ccc(Cl)s1 [Cmpd 393],10 to 100,0.1 to 1,,,,
CC(C)(C)C(=O)n1nc(C2CCNCC2)c(F)c1NCc1ccc(Cl)s1 [Cmpd 24],,,,,,"bioavailability ([2]; male, CD-1, mouse, po, 5 mg/kg, read-out: % F): 70%; AUC ([2]; mouse, iv, male CD-1 mice, single i.v. dose 1 mg/kg, dose type A (5% dimethyl acetamide, tetraethylene glycol), read-out: i.v. AUC): 200 ng·h/mL; C0 ([2]; mouse, iv, male CD-1 mice, single i.v. dose 1 mg/kg, dose type A (5% dimethyl acetamide, tetraethylene glycol), read-out: i.v. C0): 200 ng/mL; clearance ([2]; mouse, iv, male CD-1 mice, single i.v. dose 1 mg/kg, dose type A (5% dimethyl acetamide, tetraethylene glycol), read-out: i.v. CL (converted)): 83.3 mL/min/kg; Vd ([2]; mouse, iv, male CD-1 mice, single i.v. dose 1 mg/kg, dose type A (5% dimethyl acetamide, tetraethylene glycol), read-out: i.v. Vd): 8 L/kg; half-life ([2]; mouse, iv, male CD-1 mice, single i.v. dose 1 mg/kg, dose type A (5% dimethyl acetamide, tetraethylene glycol), read-out: i.v. t1/2 (converted)): 1 h; AUC ([2]; mouse, po, male CD-1 mice, single p.o. dose 5 mg/kg, dose type A (5% dimethyl acetamide, tetraethylene glycol), read-out: p.o. AUC): 600 ng·h/mL; half-life ([2]; mouse, po, male CD-1 mice, single p.o. dose 5 mg/kg, dose type A (5% dimethyl acetamide, tetraethylene glycol), read-out: p.o. t1/2 (converted)): 1 h"
COc1ccc(CNc2nc(-c3ccccn3)nn2C(=O)CCc2ccccc2)cc1 [Cmpd 323],10 to 100,1 to 10,,,,
COc1ccc(C(=O)n2nc(C3CCOCC3)nc2NCc2ccc(Cl)s2)c(OC)c1 [Cmpd 384],10 to 100,0.1 to 1,,,,
"O=C(c1ccco1)n1nc(-c2cccn(Cc3ccccc3)c2=O)cc1NCc1ccc(Cl)s1 [Cmpd 49, 1-benzyl-3-(5-[(5-chlorothiophen-2-yl)methyl]amino-1-[(furan-2-yl)carbonyl]-1H-pyrazol-3-yl)-1,2-dihydropyridin-2-one]",,,,0.1 to 1,< 0.1,
COc1ccc(CNc2nc(-c3cccnc3)nn2C(=O)c2ccccc2)cc1 [Cmpd 361],1 to 10,1 to 10,,,,
"CC(C)(CO)C(=O)n1nc(-c2cccn(Cc3cccnc3)c2=O)cc1NCc1ccc(Cl)s1 [Cmpd 94, 3-(5-[(5-chlorothiophen-2-yl)methyl]amino-1-(3-hydroxy-2,2-dimethylpropanoyl)-1H-pyrazol-3-yl)-1-(pyridin-3-ylmethyl)-1,2-dihydropyridin-2-one]",,,,1 to 10,< 0.1,
"COCC(C)(C)C(=O)n1nc(-c2cccn(Cc3ccco3)c2=O)cc1NCc1ccc(Cl)s1 [Cmpd 98, 3-(5-[(5-chlorothiophen-2-yl)methyl]amino-1-(3-methoxy-2,2-dimethylpropanoyl)-1H-pyrazol-3-yl)-1-(furan-2-ylmethyl)-1,2-dihydropyridin-2-one]",,,,> 100,< 0.1,
"COCC(C)(C)C(=O)n1nc(-c2cccn(Cc3cccnn3)c2=O)cc1NCc1ccc(Cl)s1 [Cmpd 100, 3-(5-[(5-chlorothiophen-2-yl)methyl]amino-1-(3-methoxy-2,2-dimethylpropanoyl)-1H-pyrazol-3-yl)-1-(pyridazin-3-ylmethyl)-1,2-dihydropyridin-2-one]",,,,1 to 10,< 0.1,
"Cn1cccc(-c2cc(NCc3ccc(Cl)s3)n(C(=O)C3(COC(=O)C4(CO)CC4)CC3)n2)c1=O [Cmpd 265, 1-[(5-[(5-chlorothiophen-2-yl)methyl]amino-3-(1-methyl-2-oxo-1,2-dihydropyridin-3-yl)-1H-pyrazol-1-yl)carbonyl]cyclopropylmethyl 1-(hydroxymethyl)cyclopropane-1-carboxylate]",,,,1 to 10,< 0.1,
